These are literature values, as cited in patent US5773415A, “Use of des-aspartate-angiotensin I as an anti-cardiac hypertrophic agent” (National University of Singapore, priority 1995, dated 1998).

This series concerns specific aminopeptidase. Conditions: homogenates of rat aorta and hypothalamus.
With `O=C(O)CN(CCN(CC(=O)O)CC(=O)O)CC(=O)O` [EDTA], the “Inhibition of the aminopeptidase degrading angiotensin I to des-Aspartate-angiotensin I” value (“Inhibition” below) is “not inhibited”.

With `CC(C)C[C@@H](N)[C@H](O)C(=O)N[C@H](C(=O)N[C@H](C(=O)N[C@@H](CC(=O)O)C(=O)O)C(C)C)C(C)C` [amastatin], the “Inhibition” value was “not inhibited”. In the case of `CC(C)C[C@H](NC(=O)[C@@H](O)[C@H](N)Cc1ccccc1)C(=O)O` [bestatin], the “Inhibition” value was “not inhibited”.
